Results from patent US5747507A, “Cardio-protective agent” (priority 1992, dated 1998).
Several values for one entry are separate records, joined by “and”; a condition that tells them apart may be missing. Equal values may be shown once.

Key:
[1] = literature; cited from earlier work
vascular smooth muscle = settings: literature; cited from earlier work
[2] = test system: endothelin-induced myocardial infarction; assay: Inhibitory effect on endothelin-induced myocardial infarction: T-wave elevation in rabbit electrocardiogram; format: in vivo, Japanese White rabbits; settings: 3.0 mg/kg oral; for T-wave elevation: 15 min before endothelin 1.2 nmol/kg i.v., 3 min after endothelin, mean values
Excerpt: (§1) Inhibitory effect on endothelin-induced myocardial infarction
(§2) The inhibitory effect of the cardio-protective agent of the present invention on endothelin-induced myocardial infarction was examined in the following manner.
(§3) The animals used in the examination were Japanese White rabbits each weighing 2.0 to 3.1 kg, which were divided into two groups, i.e., a first group consisting of 40 rabbits and a second group consisting of 13 rabbits. The hydrochloride of the above-mentioned compound (1) was dissolved in distilled water, and the resultant solution was orally administered to each of 10 rabbits of the first group in an amount of 3.0 mg/kg (body weight). In the same manner as mentioned above, diltiazem and nicorandil were individually, orally administered to each of another 10 rabbits of the first group. As a control, distilled water was orally administered to each of the remaining 10 rabbits of the first group.
(§4) Fifteen minutes after the administration, 1.2 nmol/kg (body weight) of endothelin (manufactured and sold by Peptide Institute, Japan) was injected into the auricular vein of each of the above rabbits of the first and second groups, thereby inducing myocardial infarction. With respect to the rabbits of the first and second groups, the degree of myocardial infarction was evaluated by rabbit electrocardiogram and by measuring the activity of enzymes leaked into the rabbit plasma, respectively, as follows.
With respect to each of the rabbits of the first group, the rabbit electrocardiogram was taken just before and 3 minutes after the injection of endothelin, according to the standard limb lead II induction method [Ozawa, Training of Electrocardiogram, p. 24-32, 1984, Chugai Igaku Co., Ltd., Japan), and T-wave elevation was measured.

isolated hearts [3] = assay: Inhibitory effect on myocardial cell injury caused by ischemia/reperfusion (1): coronary artery flow of isolated hearts (Langendorff method); design: species or system male Wistar rats; settings: for Coronary flow change (% based on pre-ischemic values): 40 min after initiation of reperfusion; for Bradycardia and cardiac arrest (in words): perfused isolated hearts; for Lowering of coronary artery flow (in words): ischemia/reperfusion
Excerpt: Inhibitory effect on myocardial cell injury caused by ischemia/reperfusion (1)
(§5) Hearts excised from male Wistar rats (approximately six-week old) were perfused with the Krebs-Heiseleit solution according to the Langendorff method [Tamura and Fujii, "Yakurigaku Jikkenho (Experimental Methods in Pharmacology)", pp. 176-177, 1990, published by Kyodo-isho Publishing Co., Ltd., Japan; and Yamada, Kubota et al., "Yakurigaku Jisshu (Pharmacological Practice)", pp. 79-81, 1979, published by Kodansha Scientific Co., Ltd., Japan]. After the isolated hearts were allowed to stabilize, the flowing of the perfusate was temporarily stopped, and the isolated hearts were allowed to be in an ischemic state for 40 minutes. Subsequently, reperfusion was conducted for 40 minutes.
Hydrochlorides of compounds (1) and (83) mentioned above were individually dissolved in distilled water, and the resultant aqueous solutions of the hydrochlorides of compounds (1) and (83) were individually introduced to and perfused in a perfusion circuit with the reperfusate for 5 minutes simultaneously with the initiation of reperfusion. In the same manner as mentioned above, diltiazem as a comparative agent and physiological saline as a control were individually perfused with the reperfusate. The perfusion conditions of the aqueous solutions of the hydrochlorides of compounds (1) and (83), diltiazem and physiological saline are shown in Table 3.
With respect to each of the test agents, the coronary artery flow was measured just before the ischemia, i.e., the stopping of the perfusion, and 40 minutes after the initiation of reperfusion using an electromagnetic flow probe FF-030P (manufactured and sold by Nippon Koden Corp., Japan).

heart = settings: in vivo; cited from earlier work
[4] = test system: endothelin-induced myocardial infarction; assay: Inhibitory effect on endothelin-induced myocardial infarction: creatine kinase activity in rabbit plasma; format: in vivo, Japanese White rabbits
Excerpt: as §1, §2, §3
(§6) With respect to the rabbits of the second group, the above-prepared aqueous solution of the hydrochloride of compound (1) was orally administered to each of 7 rabbits in the same manner as mentioned above, and as a control, distilled water was orally administered to each of the remaining 6 rabbits.
as §4
(§7) With respect to each of the rabbits of the second group, the blood was collected using a heparinized syringe just before and thirty minutes after the intravenous administration of endothelin. The collected blood was subjected to centrifugation using a cooling centrifuge (CR20B2, manufactured and sold by Hitachi Corp., Japan), to thereby separate plasma. […]

[5] = test system: endothelin-induced myocardial infarction; assay: Inhibitory effect on endothelin-induced myocardial infarction: lactate dehydrogenase activity in rabbit plasma; format: in vivo, Japanese White rabbits
Excerpt: as §1, §2, §3, §6, §4, §7

isolated hearts [6] = assay: Inhibitory effect on myocardial cell injury caused by ischemia/reperfusion (2): leaked lactate dehydrogenase activity, isolated hearts (Langendorff method); design: species or system rats; settings: for Lactate dehydrogenase activity, before ischemia / Lactate dehydrogenase activity, 10 min after initiation of reperfusion: mean values; for Activities of the leaked enzymes (in words): lactate dehydrogenase and creatine kinase, ischemia/reperfusion
Excerpt: as §5
(§8) Inhibitory effect on myocardial cell injury caused by ischemia/reperfusion (2)
(§9) In the same manner as in Example 2, hearts excised from rats were perfused in the Krebs-Henseleit solution in accordance with the Langendorff method. After the isolated hearts were allowed to stabilize, the flowing of the perfusate was temporarily stopped, and the isolated hearts were allowed to be in an ischemic state for 20 minutes. Subsequently, reperfusion was conducted for 60 minutes. As activities of the leaked enzymes, the lactate dehydrogenase activity and […] activity were examined with respect to each of the samples using an autoanalizer (Super Z 818, manufactured and sold by NITTEC Co., Ltd., Japan). The aqueous solutions of the hydrochlorides of compounds (1) and (83) were individually introduced to and perfused in a perfusion circuit with reperfusate simultaneously with the initiation of the reperfusion under the conditions as shown in Table 4. As a control, physiological saline was perfused with the reperfusate in the same manner as mentioned above. The above-mentionedactivities of the enzymes leaked into the perfusate and reperfusate were, respectively, measured before the ischemia and 10 minutes after the initiation of reperfusion.

[7] = literature; cited from earlier work; remark: listed apart in the source
[8] = literature; cited from earlier work; remark: listed apart in the source
isolated hearts [9] = assay: Inhibitory effect on myocardial cell injury caused by ischemia/reperfusion (2): leaked creatine kinase activity, isolated hearts (Langendorff method); design: species or system rats; settings: mean values
Excerpt: as §5, §8, §9

Japanese White rabbits = assay: Toxicity in oral administration; format: in vivo; settings: 30 mg/kg (body weight)
Excerpt: Toxity in oral administration

[10] = plasma, 3.0 mg/kg oral, 30 min after i.v. endothelin, mean values
[11] = plasma, 3.0 mg/kg oral, just before i.v. endothelin, mean values

Row | Compound | Effect on blood flow [1] | Effect on vascular smooth muscle (vascular smooth muscle) | Inhibition of T-wave elevation (in words) [2] | T-wave elevation [2] | Coronary flow change (% based on pre-ischemic values) (isolated hearts [3]; 3 × 10^-6 M) | Bradycardia and cardiac arrest (in words) (isolated hearts [3]) | Lactate dehydrogenase activity, before ischemia (isolated hearts [6]; 10^-5 M group) | Lactate dehydrogenase activity, 10 min after initiation of reperfusion (isolated hearts [6]; 10^-5 M) | Activities of the leaked enzymes (in words) (isolated hearts [6]) | Lowering of coronary artery flow (in words) (isolated hearts [3]) | Antihypertensive effect [7] | Cerebral protective effect [8] | Creatine kinase activity, before ischemia (isolated hearts [9]; 10^-5 M group) | Creatine kinase activity, 10 min after initiation of reperfusion (isolated hearts [9]; 10^-5 M) | other results
1 | N=C(N)NCCNS(=O)(=O)c1cccc2cnccc12 [(104), N-(2-guanidinoethyl)-5-isoquinolinesulfonamide] | increasing effect on blood flow | relaxing effect on vascular smooth muscle |  |  |  |  |  |  |  |  |  |  |  |  | 
2 | COc1ccc([C@@H]2Sc3ccccc3N(CCN(C)C)C(=O)[C@@H]2OC(C)=O)cc1 [Diltiazem, reference compound] |  |  | T-wave elevation was not inhibited | 0.46 mV | 54% | bradycardia and cardiac arrest occurred |  |  |  |  |  |  |  |  | Bradycardia (isolated hearts [3]; 1 × 10^-5 M): bradycardia; Cardiac arrest (isolated hearts [3]; 1 × 10^-5 M): cardiac arrest; Side effect on atrioventricular conducting system (heart): atrioventricular conducting system of the patient is depressed; Side effect on heart rate (heart): decrease in heart rate
3 | O=C(NCCO[N+](=O)[O-])c1cccnc1 [Nicorandil] |  |  | T-wave elevation was not inhibited | 0.58 mV |  |  |  |  |  |  |  |  |  |  | 
4 | O=S(=O)(c1cccc2cnccc12)N1CCCNCC1 [compound (1), 1-(5-isoquinolinesulfonyl)homopiperazine] | increasing effect on blood flow | relaxing effect on vascular smooth muscle | can remarkably inhibit the T-wave elevation | 0.00 mV and 0 mV | 70% | neither bradycardia nor cardiac arrest occurred | 21.3 IU/min | 575.3 IU/min | greatly inhibited | greatly inhibited | antihypertensive effect | cerebral protective effect | 18.6 IU/min | 901.5 IU/min | Effect on creatine kinase activity in plasma (in words) ([4]; caused by i.v. endothelin): had an inhibitory effect; Creatine kinase activity, 30 min after administration [4, 10]: 163.9 IU/1; Creatine kinase activity, just before administration [4, 11]: 114.6 IU/1; Effect on lactate dehydrogenase activity in plasma (in words) ([5]; caused by i.v. endothelin): had an inhibitory effect; Lactate dehydrogenase activity, 30 min after administration [5, 10]: 52.1 IU/1; Lactate dehydrogenase activity, just before administration [5, 11]: 29.7 IU/1; Lactate dehydrogenase activity, before ischemia (isolated hearts [6]; 10^-6 M group): 22.8 IU/min; Lactate dehydrogenase activity, 10 min after initiation of reperfusion (isolated hearts [6]; 10^-6 M): 732.8 IU/min; Creatine kinase activity, before ischemia (isolated hearts [9]; 10^-6 M group): 26.6 IU/min; Creatine kinase activity, 10 min after initiation of reperfusion (isolated hearts [9]; 10^-6 M): 1159.8 IU/min
5 | O=S(=O)(c1cccc2c(O)nccc12)N1CCCNCC1 [compound (83), 1-(1-hydroxy-5-isoquinolinesulfonyl)homopiperazine] | increasing effect on blood flow | relaxing effect on vascular smooth muscle |  |  |  | neither bradycardia nor cardiac arrest occurred | 1.2 IU/min | 487.0 IU/min | greatly inhibited | greatly inhibited | antihypertensive effect | cerebral protective effect | 17.4 IU/min | 881.5 IU/min | Coronary flow change (% based on pre-ischemic values) (isolated hearts [3]; 1 × 10^-5 M): 58%; Coronary flow change (% based on pre-ischemic values) (isolated hearts [3]; 3 × 10^-5 M): 61%; Number of rabbits died/Number of rabbits tested (Japanese White rabbits): 0/5
